Measured values: ChEMBL document CHEMBL3813695, “Assessment of the anti-metastatic properties of sanguiin H-6 in HUVECs and MDA-MB-231 human breast cancer cells” (Bioorg Med Chem Lett, 2016)
The source made the active and inactive calls. The rule behind the calls is not given here.

Tests used:
HUVEC [1] = assay: Cytotoxicity against HUVEC assessed as inhibition of cell proliferation after 24 hrs by MTT assay; type: cell-based; conditions: human
[2] = molecular target: RAC-alpha serine/threonine-protein kinase (Homo sapiens) (UniProt P31749); assay: Decrease in phosphorylated Akt level in human MDA-MB-231 cells after 24 hrs by western blotting method; type: cell-based
MDA-MB-231 [3] = assay: Cytotoxicity against human MDA-MB-231 cells assessed as decrease in cell viability at 6.25 to 25 uM after 24 hrs by MTT assay; type: functional, cell-based
MDA-MB-231 [4] = assay: Decrease in VEGF expression in human MDA-MB-231 cells after 24 hrs by western blotting method; type: functional, cell-based
MDA-MB-231 [5] = assay: Cytotoxicity against human MDA-MB-231 cells assessed as decrease in cell viability at 200 uM after 24 hrs by MTT assay; type: functional, cell-based
HUVEC [6] = assay: Inhibition of tube formation in HUVEC at 6.25 uM measured after 24 hrs by Mayers hematoxylin staining based light microscopic analysis relative to control; type: functional; conditions: Homo sapiens
HUVEC [7] = assay: Cytotoxicity against HUVEC assessed as inhibition of cell proliferation up to 12.5 uM after 24 hrs by MTT assay; type: cell-based; conditions: human
HUVEC [8] = assay: Antimigratory activity against HUVEC at 6.25 uM measured after 24 hrs by Mayers hematoxylin and eosin-Y staining based microscopic analysis relative to control; type: functional, Homo sapiens
[9] = molecular target: Mitogen-activated protein kinase; ERK1/ERK2 (Homo sapiens) (UniProt P27361+P28482); assay: Decrease in phosphorylated ERK1/2 level in human MDA-MB-231 cells after 24 hrs by western blotting method; type: cell-based
Chain of Mitogen-activated protein kinase; ERK1/ERK2 (Homo sapiens) (P27361 whole entry, looked up): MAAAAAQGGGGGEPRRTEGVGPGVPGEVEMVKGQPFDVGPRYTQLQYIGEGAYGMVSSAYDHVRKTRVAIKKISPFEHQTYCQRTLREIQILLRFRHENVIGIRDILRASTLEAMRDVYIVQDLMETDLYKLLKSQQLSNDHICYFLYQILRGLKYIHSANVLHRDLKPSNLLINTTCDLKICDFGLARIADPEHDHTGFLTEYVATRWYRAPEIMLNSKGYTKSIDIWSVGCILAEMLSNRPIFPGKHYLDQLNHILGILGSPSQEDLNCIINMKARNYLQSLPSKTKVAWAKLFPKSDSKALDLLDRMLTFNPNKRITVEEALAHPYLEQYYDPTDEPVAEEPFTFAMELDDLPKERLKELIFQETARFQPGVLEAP
Chain of Mitogen-activated protein kinase; ERK1/ERK2 (Homo sapiens) (P28482 whole entry, looked up): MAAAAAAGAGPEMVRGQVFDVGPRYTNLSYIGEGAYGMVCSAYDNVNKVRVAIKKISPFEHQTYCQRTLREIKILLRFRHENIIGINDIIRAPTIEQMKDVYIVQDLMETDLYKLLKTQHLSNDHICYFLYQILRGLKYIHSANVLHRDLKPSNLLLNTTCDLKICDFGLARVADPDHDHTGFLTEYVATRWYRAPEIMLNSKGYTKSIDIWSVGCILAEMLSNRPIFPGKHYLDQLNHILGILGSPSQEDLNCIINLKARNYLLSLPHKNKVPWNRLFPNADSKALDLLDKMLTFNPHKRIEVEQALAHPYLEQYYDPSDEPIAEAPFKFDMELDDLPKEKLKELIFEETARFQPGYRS

Chain of RAC-alpha serine/threonine-protein kinase (Homo sapiens) (P31749 whole entry): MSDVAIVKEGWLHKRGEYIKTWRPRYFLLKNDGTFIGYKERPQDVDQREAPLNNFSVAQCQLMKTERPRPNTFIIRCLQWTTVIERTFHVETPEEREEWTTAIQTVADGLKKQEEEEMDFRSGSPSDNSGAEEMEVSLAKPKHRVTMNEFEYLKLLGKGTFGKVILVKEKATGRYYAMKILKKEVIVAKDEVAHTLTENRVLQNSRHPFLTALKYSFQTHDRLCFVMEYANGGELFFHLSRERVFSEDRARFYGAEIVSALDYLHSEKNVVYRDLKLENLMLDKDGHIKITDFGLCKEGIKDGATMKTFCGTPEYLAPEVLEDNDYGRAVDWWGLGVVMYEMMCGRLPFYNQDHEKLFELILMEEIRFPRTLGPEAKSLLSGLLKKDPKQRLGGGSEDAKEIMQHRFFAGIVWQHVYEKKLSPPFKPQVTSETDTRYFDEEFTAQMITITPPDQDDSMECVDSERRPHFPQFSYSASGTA

inhibition [2]: Active
inhibition [9]: Active
Compound: O=C(O[C@@H]1O[C@@H]2COC(=O)c3cc(O)c(O)c(O)c3-c3c(cc(O)c(O)c3O)C(=O)O[C@H]2[C@@H]2OC(=O)c3cc(O)c(O)c(O)c3-c3c(cc(O)c(O)c3O)C(=O)O[C@@H]12)c1cc(O)c(O)c(Oc2c(O)c(O)c(O)c3c2C(=O)O[C@H]2[C@@H]4OC(=O)c5cc(O)c(O)c(O)c5-c5c(cc(O)c(O)c5O)C(=O)O[C@H]4[C@@H](OC(=O)c4cc(O)c(O)c(O)c4)O[C@@H]2COC(=O)c2cc(O)c(O)c(O)c2-3)c1
inhibition (INH) (HUVEC [1]): Dose-dependent effect
inhibition (MDA-MB-231 [3]): inactive
inhibition (MDA-MB-231 [4]): Active
inhibition (MDA-MB-231 [5]): Active
inhibition at 6.25 µM (HUVEC [6]): 41.5%
Activity (HUVEC [7]): Non-toxic
Activity (HUVEC [8]): 37.6%
